{
  "source": "patent US20240058403A1",
  "about": "“YEAST PARTICLES FOR DELIVERY OF WATER-ACTIVATED SELF-EMULSIFYING CANNABINOID FORMULATIONS” (UNIVERSITY OF MASSACHUSETTS, priority 2022, published 2024)",
  "key": {"[1]": {"experiment": "Sustained CBD release from GLPs with sequestering/release agents in simulated saliva", "format": "physicochemical", "method": "GLPs were loaded at a weight ratio of CBD:OA:GLP of 2:1:1. […] Aliquots (200 μL) were collected at 1, 3, 6 and 24 h and the samples were centrifuged to separate supernatant (released CBD fraction) and GLP pellet. Released CBD was quantified in the supernatants by HPLC as described before.\nThe effect of addition of RAs to CBD with OA as SA was tested.\nGLPs were loaded with CBD, OA and various RAs. Release assays were performed by the procedure described as before.\n[…] Aliquots (200 μL) were collected at 1, 3, 6 and 24 h and the samples were centrifuged to separate supernatant (released CBD fraction) and GLP pellet. Released CBD was quantified in the supernatants by HPLC as described before."}, "[2]": {"experiment": "Fast release of cannabinoids from GLPs embedded in adjuvant, simulated saliva with or without tissue, 1 minute", "format": "physicochemical", "details": "for cannabinoid release from GLP in 1 minute: cannabinoid loaded alone, no release agent; for THC released in 1 minute: 37° C.", "method": "Composition of simulated saliva was 0.72 g/L potassium chloride, 0.22 g/L calcium chloride dihydrate, 0.68 g/L potassium phosphate monobasic, 0.866 g/L sodium phosphate dibasic, 1.5 g/L potassium bicarbonate, 0.06 g/L potassium thiocyanate, and 0.03 g/L citric acid. Samples of dry GLP-THC (4 mg) were resuspended in 1 mL of (A) water, (B) dry glycerin or (C) SEDDS mixture (3.3 mg/mL lecithin in 3% MCT in glycerin). The GLP THC suspensions were diluted with simulated saliva (25% simulated saliva+75% GLP THC in solvent mixture) with and without the addition of a sample of 75-100 mg fat tissue. The samples were incubated for 1 minute at 37° C., and then the fractions were separated to quantify THC in the GLP pellet (THC not released), THC in supernatant (released) and THC in the tissue (released from GLP and absorbed by the tissue). The THC absorbed in the tissue was extracted in 100% methanol and the THC remaining in GLPs was extracted in 80% ethanol-20% water. The THC in all fractions was quantified by HPLC.\nGLPs were loaded with a THC:GLP weight ratio of 1:1 and embedded in different solvents. THC release was achieved and quantified as described before (FIG. 9).\nGLPs were loaded with a THC and undecanoic acid as a release agent (RA). Loaded GLPs were embedded in adjuvants (water, glycerin or SEDDS mixture). THC release was achieved and quantified as described before (FIG. 9).\nGLPs were loaded with a CBD, CBN or CBG and octanoic acid as a RA. Loaded GLPs were embedded in adjuvant water or SEDDS mixture. Cannabinoid release was achieved and quantified as described before for THC (FIG. 9)."}, "[3]": {"test_system": "C. albicans", "details": "by enhancing potassium leakage and disrupting membrane fluidity; cited from earlier work"}, "[4]": {"test_system": "H. pylori", "details": "cited from earlier work"}, "[5]": {"test_system": "S. cerevisiae", "details": "by enhancing potassium leakage and disrupting membrane fluidity; cited from earlier work"}, "[6]": {"experiment": "Micelle size of CBD-SA-RA emulsions", "format": "physicochemical"}, "[7]": {"experiment": "Stability of CBD-SA-RA o/w emulsions", "format": "physicochemical", "details": "for Stable CBD o/w emulsion: 1 mg/mL in water, room temperature 30 minutes; for Stable CBD-OA-RA o/w emulsion: 1 mg/mL in water by sonication, room temperature for 30 minutes, precipitate/phase partitioning = unstable"}, "[8]": {"experiment": "Release of oleamide from GLPs in simulated saliva with or without tissue", "format": "physicochemical", "method": "The release of oleamide encapsulated in GLPs using octanoic acid or undecanoic acid as loading solvent or as leave-in solvent was tested. To perform the release assay, the GLP-oleamide suspensions were diluted with simulated saliva (25% simulated saliva+75% GLP in solvent mixture) with and without the addition of a sample of 75-100 mg fat tissue. […], and then the fractions were separated to quantify oleamide in the GLP pellet (unreleased oleamide), oleamide in the supernatant (released) and oleamide in the tissue (released from GLP and absorbed by the tissue). The oleamide absorbed in the tissue was extracted in 100% methanol and the oleamide remaining in GLPs was extracted in 80% ethanol-20% water. The oleamide in all fractions was quantified by HPLC. […] Oleamide was released at a low efficiency (2%) from GLPs with simulated saliva and higher efficiency (34-40%) with simulated saliva and tissue. The addition of UA as the leave-in solvent increased OA release from 34% to 46% in 5 minutes and from 40% to 58% with simulated saliva and tissue"}, "[9]": {"experiment": "Physical state of THC-UDA-RA mixture at room temperature", "format": "physicochemical", "method": "Various RAs were tested as described before for their ability to stabilize micelles formed when GLPs encapsulate THC as the payload and UDA as the SA."}, "[10]": {"experiment": "Sustained THC release from GLP-THC-UDA with or without RA in simulated saliva + tissue", "format": "physicochemical", "details": "simulated saliva + tissue at 37° C.; 1 to 24 h", "method": "GLPs were loaded at a weight ratio of CBD:OA:GLP of 2:1:1. Dry GLP-CBD (5 mg) were resuspended in 1 mL of simulated saliva, a 75-100 mg piece of simulated tissue was added to the sample and incubated at 37° C. with constant mixing. Aliquots (200 μL) were collected at 1, 3, 6 and 24 h and the samples were centrifuged to separate supernatant (released CBD fraction) and GLP pellet. Released CBD was quantified in the supernatants by HPLC as described before.\nThe effect of addition of RAs to THC with UDA as SA was tested. Release assays were performed as described as before."}, "[11]": {"experiment": "Maximum solubility of surfactants in OA or UDA", "format": "physicochemical"}, "[12]": {"details": "hydrophilic-lipophilic balance; cited from earlier work"}, "[13]": {"details": "CBD-SA-RA emulsion, RA TRITON X100 20 % w/w"}},
  "note": "“Also recorded” adds a separate entry of the source. Read-outs that look alike come from different tables or passages of the source.",
  "data": [
    {"molecule": "C=C(C)[C@@H]1CCC(C)=C[C@H]1c1c(O)cc(CCCCC)cc1O", "note": "[CBD, cannabidiol, reference compound]", "values": [
      {"measurement": "time after which CBD release plateaued", "setting": "[1]; GLPs CBD:OA:GLP 2:1:1, OA as SA, simulated saliva", "value": 6, "unit": "h"},
      {"measurement": "CBD released after 24 h incubation", "setting": "[1]; GLPs CBD:OA:GLP 2:1:1, OA as SA, simulated saliva (without simulated tissue), 37° C.", "value": "≤ 25", "unit": "%"},
      {"measurement": "cannabinoid release from GLP in 1 minute", "setting": "[2]", "value": "do not release efficiently"}
    ]},
    {"molecule": "CCCCCc1cc(O)c(C/C=C(\\C)CCC=C(C)C)c(O)c1", "note": "[CBG, cannabigerol]", "values": [
      {"measurement": "cannabinoid release from GLP in 1 minute", "setting": "[2]", "value": "do not release efficiently"}
    ]},
    {"molecule": "CCCCCc1cc(O)c2c(c1)OC(C)(C)c1ccc(C)cc1-2", "note": "[CBN, cannabinol]", "values": [
      {"measurement": "cannabinoid release from GLP in 1 minute", "setting": "[2]", "value": "do not release efficiently"}
    ]},
    {"molecule": "CC(C)=CCC/C(C)=C/CO", "note": "[Geraniol]", "values": [
      {"measurement": "growth inhibition", "setting": "[3]", "value": "inhibit the growth"},
      {"measurement": "concentration that inhibited in vitro growth", "setting": "[4]", "value": 2, "unit": "mg/L"},
      {"measurement": "growth inhibition", "setting": "[5]", "value": "inhibit the growth"}
    ]},
    {"molecule": "C=CC(C)(O)CCC=C(C)CCC=C(C)C", "note": "(stereo not shown) [Nerolidol]", "values": [
      {"measurement": "total CBD release at 24 hours", "setting": "[1]; SA plus TRITON X-100 as RA, simulated saliva + tissue at 37° C.", "value": 37, "unit": "%"},
      {"measurement": "course of CBD release with SA and TRITON X-100 as RA", "setting": "[1]; simulated saliva + tissue at 37° C.", "value": "did not lead to CBD release in the first 6 hours"},
      {"measurement": "CBD-SA-RA micelle size (nm)", "setting": "[6]; RA TRITON X100 20 % w/w", "value": 661, "unit": "nm"},
      {"measurement": "CBD-SA-RA micelle size (nm)", "setting": "[6]; without RA", "value": 1260, "unit": "nm"},
      {"measurement": "Stable CBD o/w emulsion", "setting": "[7]; CBD-SA emulsion without RA", "value": "No"},
      {"measurement": "Stable CBD o/w emulsion", "setting": "[7]; [13]", "value": "Yes"}
    ]},
    {"molecule": "CCCCCCCC(=O)O", "note": "[Octanoic acid]", "values": [
      {"measurement": "CBD-SA-RA micelle size (nm)", "setting": "[6]; without RA", "value": 379, "unit": "nm"},
      {"measurement": "Stable CBD o/w emulsion", "setting": "[7]; CBD-SA emulsion without RA", "value": "No"},
      {"measurement": "Stable CBD o/w emulsion", "setting": "[7]; [13]", "value": "Yes"}
    ]},
    {"molecule": "CCCCCCCC/C=C\\CCCCCCCC(N)=O", "note": "[Oleamide, oleamide]", "values": [
      {"measurement": "% oleamide Released", "setting": "[8]; simulated saliva (no tissue), 1 hour", "value": 2, "unit": "%"},
      {"measurement": "% oleamide Released", "setting": "[8]; simulated saliva + tissue, 5 minutes", "value": 34, "unit": "%"},
      {"measurement": "% oleamide Released", "setting": "[8]; simulated saliva + tissue, 1 hour", "value": 40, "unit": "%"},
      {"measurement": "oleamide release efficiency", "setting": "[8]; simulated saliva and tissue, 5 minutes to 1 hour", "value": "34-40%"}
    ]},
    {"molecule": "CCCCCc1cc(O)c2c(c1)OC(C)(C)[C@@H]1CCC(C)=C[C@@H]21", "note": "[THC, tetrahydrocannabinol]", "values": [
      {"measurement": "THC released in 1 minute", "setting": "[2]; GLPs (THC:GLP 1:1) embedded in SEDDS mixture (lecithin/MCT/glycerin), simulated saliva with tissue", "value": "up to 53%"},
      {"measurement": "THC released in 1 minute", "setting": "[2]; GLPs (THC:GLP 1:1) embedded in SEDDS mixture (lecithin/MCT/glycerin), simulated saliva without tissue", "value": "Up to 30%"},
      {"measurement": "THC released in 1 minute", "setting": "[2]; GLPs (THC:GLP 1:1) embedded in glycerin, simulated saliva containing tissue", "value": "Up to 30%"}
    ]},
    {"molecule": "TRITON ™ X-100", "values": [
      {"measurement": "Physical State of THC-UDA-RA mixture at room temperature", "setting": "[9]", "value": "mixture of oil and solid UDA"},
      {"measurement": "Physical State of THC-UDA-RA mixture at room temperature", "setting": "[9]; listed as TRITONTM X-100", "value": "Solid"},
      {"measurement": "fold increase of CBD release compared to GLP-CBD-OA control sample", "setting": "[1]; GLP-CBD-OA-RA, simulated saliva with tissue", "value": "1.7-2.0 fold"},
      {"measurement": "effect of RA on sustained CBD release from GLP-CBD-OA", "setting": "[1]; simulated saliva with tissue, 1 to 6 hours", "value": "improvement of sustained release from 1 to 6 hours"},
      {"measurement": "effect of RA on sustained THC release from GLP-THC-UDA", "setting": "[10]", "value": "did not improve sustained release from 1 to 6 h; also recorded: yielded high THC release at the 24 hour time point"},
      {"measurement": "Stable CBD-OA-RA o/w emulsion", "setting": "[7]", "value": "Yes"},
      {"measurement": "Stable CBD-OA-RA o/w emulsion", "setting": "[7]; listed as TRITON™ X-100", "value": "form stable micelles"},
      {"measurement": "Maximum solubility in OA", "setting": "[11]", "value": 20, "unit": "% w/w"},
      {"measurement": "Maximum solubility in UDA", "setting": "[11]", "value": 37.5, "unit": "% w/w"},
      {"measurement": "HLB", "setting": "[12]", "value": 13.5}
    ]},
    {"molecule": "TWEEN 20", "values": [
      {"measurement": "Stable CBD-OA-RA o/w emulsion", "setting": "[7]", "value": "No"},
      {"measurement": "Maximum solubility in OA", "setting": "[11]", "value": 20, "unit": "% w/w"},
      {"measurement": "HLB", "setting": "[12]", "value": 16.7}
    ]},
    {"molecule": "TWEEN 80", "values": [
      {"measurement": "Stable CBD-OA-RA o/w emulsion", "setting": "[7]", "value": "No"},
      {"measurement": "Maximum solubility in OA", "setting": "[11]", "value": 25, "unit": "% w/w"},
      {"measurement": "HLB", "setting": "[12]", "value": 15}
    ]}
  ]
}
